Experimental data: ChEMBL document CHEMBL4828726, “Modification of 5-methylphenanthridium from benzothiazoles to indoles as potent FtsZ inhibitors: Broadening the antibacterial spectrum toward vancomycin-resistant enterococci” (Eur J Med Chem, 2021)
≈ marks a conversion by molar mass, not a printed value.

Legend:
Assay type in all cases: functional
[1] = system: Staphylococcus aureus; experiment: Antibacterial activity against erythromycin-susceptible Staphylococcus aureus ATCC 25923 assessed as inhibition of bacterial growth measured after 20 hrs by two-fold microdilution assay
[2] = system: Bacillus pumilus; experiment: Antibacterial activity against penicillin-susceptible Bacillus pumilus CMCC63202 assessed as inhibition of bacterial growth measured after 20 hrs by two-fold microdilution assay
[3] = system: Pseudomonas aeruginosa; experiment: Antibacterial activity against penicillin-susceptible Pseudomonas aeruginosa ATCC 27853 assessed as inhibition of bacterial growth measured after 20 hrs by two-fold microdilution assay
[4] = system: Escherichia coli; experiment: Antibacterial activity against penicillin-susceptible Escherichia coli ATCC 25922 assessed as inhibition of bacterial growth measured after 20 hrs by two-fold microdilution assay
[5] = system: Bacillus subtilis; experiment: Antibacterial activity against penicillin-susceptible Bacillus subtilis ATCC 9372 assessed as inhibition of bacterial growth measured after 20 hrs by two-fold microdilution assay
[6] = system: Staphylococcus aureus; experiment: Antibacterial activity against methicillin-resistant Staphylococcus aureus ATCC43300 assessed as inhibition of bacterial growth measured after 20 hrs by two-fold microdilution assay
[7] = system: Streptococcus pyogenes; experiment: Antibacterial activity against erythromycin-susceptible Streptococcus pyogenes assessed as inhibition of bacterial growth measured after 20 hrs by two-fold microdilution assay
[8] = system: Staphylococcus aureus; experiment: Antibacterial activity against penicillin-resistant Staphylococcus aureus ATCC 31007 assessed as inhibition of bacterial growth measured after 20 hrs by two-fold microdilution assay
[9] = system: Staphylococcus aureus; experiment: Antibacterial activity against clinical isolate Staphylococcus aureus C1 assessed as inhibition of bacterial growth measured after 20 hrs by two-fold microdilution assay
[10] = system: Staphylococcus epidermidis; experiment: Antibacterial activity against penicillin-resistant Staphylococcus epidermidis assessed as inhibition of bacterial growth measured after 20 hrs by two-fold microdilution assay
[11] = system: Streptococcus pyogenes; experiment: Antibacterial activity against erythromycin-resistant Streptococcus pyogenes assessed as inhibition of bacterial growth measured after 20 hrs by two-fold microdilution assay
[12] = system: Enterococcus faecium; experiment: Antibacterial activity against Vancomycin-resistant Enterococcus faecium ATCC 51559 assessed as inhibition of bacterial growth measured after 20 hrs by two-fold microdilution assay
[13] = system: Bacillus subtilis; experiment: Bactericidal activity against penicillin-susceptible Bacillus subtilis ATCC 9372 assessed as inhibition of bacterial growth measured after 20 hrs by two-fold microdilution assay
[14] = system: Staphylococcus aureus; experiment: Bactericidal activity against erythromycin-susceptible Staphylococcus aureus ATCC 25923 assessed as inhibition of bacterial growth measured after 20 hrs by two-fold microdilution assay
[15] = system: Enterococcus faecalis; experiment: Antibacterial activity against Vancomycin-susceptible Enterococcus faecalis ATCC 29212 assessed as inhibition of bacterial growth measured after 20 hrs by two-fold microdilution assay
[16] = system: Enterococcus faecalis; experiment: Antibacterial activity against Vancomycin-resistant Enterococcus faecalis ATCC 51299 assessed as inhibition of bacterial growth measured after 20 hrs by two-fold microdilution assay
[17] = system: Enterococcus faecium; experiment: Antibacterial activity against Vancomycin-susceptible Enterococcus faecium ATCC 19434 assessed as inhibition of bacterial growth measured after 20 hrs by two-fold microdilution assay

| SMILES | MIC [1] [µg/mL] | MIC [2] [µg/mL] | MIC [3] [µg/mL] | MIC [4] [µg/mL] | MIC [5] [µg/mL] | MIC [6] [µg/mL] | MIC [7] [µg/mL] | MIC [8] [µg/mL] | MIC [9] [µg/mL] | MIC [10] [µg/mL] | MIC [11] [µg/mL] | MIC [12] [µg/mL] | MBC [13] [µg/mL] | MBC [14] [µg/mL] | MIC [15] [µg/mL] | MIC [16] [µg/mL] | MIC [17] [µg/mL] |
| --- | --- | --- | --- | --- | --- | --- | --- | --- | --- | --- | --- | --- | --- | --- | --- | --- | --- |
| COc1ccc2c[n+](C)c3ccc(-c4nc5ccccc5s4)cc3c2c1.[Cl-] | > 64 | > 64 | > 64 | > 64 | > 64 | > 64 | > 64 | > 64 | > 64 | > 64 | – | – | – | – | – | – | – |
| Cc1cccc2c[n+](C)c3ccc(-c4ccc5ccn(C)c5c4)cc3c12.[Cl-] | 2 | 8 | > 64 | > 64 | 1 | 8 | 8 | 32 | 8 | 16 | 4 | – | – | – | – | – | – |
| Cc1cccc2c[n+](C)c3ccc(-c4nc5ccccc5s4)cc3c12.[Cl-] | 2 | 4 | > 64 | > 64 | 4 | 4 | 4 | 4 | 4 | 4 | 4 | 16 | > 64 | > 64 | 1 | 16 | 8 |
| CCCCn1ccc2ccc(-c3ccc4c(c3)c3cc(C)ccc3c[n+]4C)cc21.[Cl-] | 2 | 8 | > 64 | > 64 | 4 | 8 | 8 | 8 | 4 | 16 | 16 | 8 | – | – | 8 | 16 | 8 |
| COc1ccc2c(c1)c[n+](C)c1ccc(-c3nc4ccccc4s3)cc21.[Cl-] | > 64 | > 64 | > 64 | > 64 | > 64 | > 64 | > 64 | > 64 | > 64 | > 64 | – | – | – | – | – | – | – |
| Cc1cccc2c[n+](C)c3ccc(-c4ccc5ccn(CC(C)C)c5c4)cc3c12.[Cl-] | 2 | 8 | > 64 | > 64 | 4 | 4 | 8 | 8 | 4 | 8 | 16 | – | – | – | – | – | – |
| Cc1ccc2c[n+](C)c3ccc(-c4nc5ccccc5s4)cc3c2c1.[Cl-] | 16 | 4 | > 64 | > 64 | 1 | > 64 | 4 | > 64 | > 64 | > 64 | 4 | – | – | – | – | – | – |
| C[n+]1cc2ccccc2c2cc(-c3nc4ccccc4s3)ccc21.[Cl-] | > 64 | > 64 | > 64 | > 64 | > 64 | > 64 | > 64 | > 64 | > 64 | > 64 | – | – | – | – | – | – | – |
| O=C(O)c1cn(C2CC2)c2cc(N3CCNCC3)c(F)cc2c1=O [CIPROFLOXACIN] | 4 (≈ 12.1 µM) | – | – | – | 4 (≈ 12.1 µM) | – | – | > 64 | – | > 64 | – | > 64 | – | – | 32 (≈ 96.6 µM) | > 64 | > 64 |
| Cc1cccc2c[n+](C)c3ccc(-c4ccc5ccn(Cc6ccc(OC(F)(F)F)cc6)c5c4)cc3c12.[Cl-] | 2 | 32 | – | > 64 | 8 | 16 | 16 | 8 | 8 | 8 | 16 | 4 | – | – | 8 | 8 | 4 |
